One compound from patent publication EP0051687A1, “Maleimides and process for the preparation of same” (MITSUI TOATSU CHEMICALS, Inc., priority 1980, dated 1982) can be followed below.

The nature of the series: Solubility in organic solvents at room temperature. Format: physicochemical.

Regarding `CC(C)(c1ccc(O)cc1)c1ccc(N2C(=O)C=CC2=O)cc1` [2-(4'-hydroxyphenyl)-2-(4"-maleimidophenyl) propane], the “Solubility of 2-(4'-hydroxyphenyl)-2-(4"-maleimidophenyl) propane (at room temperature )” value is, setting by setting: (Organic Solvent: Acetone) 50 wt.% or higher; (Organic Solvent: Dimethylformamide) 50 wt.% or higher; (Organic Solvent: Dioxane) 36 wt.%; (Organic Solvent: Ethanol) 11 wt.%; (Organic Solvent: Methanol) 20 wt.%; (Organic Solvent: Methyl ethyl ketone) 46 wt.%. For the setting “Organic Solvent: Tetrahydrofuran”, the “Solubility of 2-(4'-hydroxyphenyl)-2-(4"-maleimidophenyl) propane (at room temperature )” value is recorded as 50 wt.% or higher.
